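Interpolation was linear, between the two tested concentrations surrounding the appropriate level; five concentrations were tested over 48 hours in 96-well plates. Here, GI50 denotes the concentration required for 50% inhibition of growth. TGI marks complete inhibition of growth.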 *1 amine or outer side, *2 acyl side, *3 side chain or, on linkers, in order; H or OH if unused. Where a SMILES comes first, the peptide text is derived from it. [ ]: non-standard residue; d: D form. ξ: configuration not given here. X21 = CC[C@@H](C)C(N[*:1])C(=O)[*:2]; ξR = N=C(N)NCCCC(N)C(=O)O; ξI = CCC(C)C(N)C(=O)O; ξL = CC(C)CC(N)C(=O)O; ξK = NCCCCC(N)C(=O)O; ξV = CC(C)C(N)C(=O)O; ξA = CC(N)C(=O)O

Some test systems named below: SN12C renal; MALME-3M melanoma; SF-539 CNS; LOX IMVI melanoma; TK-10 renal; HL-60(TB) leukemia; HCT-116 colon; SK-MEL-5 melanoma; SNB-19 CNS; SK-OV-3 ovarian.
Assay in all cases: inhibition of tumour cell growth, NCI panel, 48 h

Turning to `C=C1C(=O)O[C@H]2[C@H]1CC/C(COC(=O)c1ccccc1)=C\CC[C@@]1(C)O[C@@H]21`, the GI50 with SN12C renal is 1390 nM; in the test on MALME-3M melanoma, 1820 nM; in the test with SF-539 CNS it was 0.662 µM; in the test with LOX IMVI melanoma, 1320 nM; in the test on TK-10 renal, 2030 nM; in the test on HL-60(TB) leukemia, 981 nM. Further, the GI50 is 469 nM in the test with HCT-116 colon, 1630 nM in the test on SK-MEL-5 melanoma, 2610 nM with SNB-19 CNS and 11.8 µM in the test with SK-OV-3 ovarian. Further, the TGI amounted to 3.26 µM in the test with SN12C renal; 3.86 µM in the test with MALME-3M melanoma; 2.1 µM with SF-539 CNS; 2.74 µM in the test on LOX IMVI melanoma; 3.98 µM in the test on TK-10 renal; 3.95 µM in the test with HL-60(TB) leukemia. Besides, the TGI was 1.82 µM with HCT-116 colon, 3.03 µM with SK-MEL-5 melanoma, 11.6 µM in the test on SNB-19 CNS and 24 µM in the test with SK-OV-3 ovarian.
Regarding `N#C/C(=C\c1ccc(C(O)P(=O)(O)O)cc1)C(N)=O` (stereo not drawn), the TGI in the test on SN12C renal, with MALME-3M melanoma, in the test on SF-539 CNS, with LOX IMVI melanoma, with TK-10 renal and in the test on HL-60(TB) leukemia was greater than 100 µM throughout. Moreover, the TGI in the test on HCT-116 colon, with SK-MEL-5 melanoma, in the test with SNB-19 CNS and in the test with SK-OV-3 ovarian was greater than 100 µM in each case.
On to `CC(C)Nc1ncc2cc(Oc3ccc(F)cc3F)c(=O)n(C)c2n1`, for which the GI50 in the test on SN12C renal was 21400 nM; with MALME-3M melanoma it was greater than 25000 nM; with SF-539 CNS it was greater than 25 µM; in the test on LOX IMVI melanoma, greater than 25000 nM; in the test with TK-10 renal it was 15800 nM; in the test with HL-60(TB) leukemia, greater than 25000 nM. The GI50 in the test with HCT-116 colon was greater than 25000 nM; in the test on SK-MEL-5 melanoma, greater than 25000 nM; in the test with SNB-19 CNS, greater than 25000 nM; in the test on SK-OV-3 ovarian it was greater than 25 µM. Moreover, the TGI in the test with SN12C renal, with MALME-3M melanoma, in the test with SF-539 CNS, in the test with LOX IMVI melanoma, with TK-10 renal and in the test on HL-60(TB) leukemia was greater than 25 µM throughout. Besides, the TGI with HCT-116 colon, with SK-MEL-5 melanoma, in the test on SNB-19 CNS and with SK-OV-3 ovarian was greater than 25 µM in each case.
For the compound `COc1cc2c(cn1)[nH]c1ccccc12`, the TGI with SN12C renal, in the test on MALME-3M melanoma, in the test with SF-539 CNS, with LOX IMVI melanoma, with TK-10 renal and with HL-60(TB) leukemia was greater than 100 µM throughout. For the same compound, the TGI in the test on HCT-116 colon, in the test with SK-MEL-5 melanoma, in the test with SNB-19 CNS and with SK-OV-3 ovarian was greater than 100 µM throughout.
On to `Nc1ncnc2c1cnn2Cc1ccc(Cl)cc1`, for which the TGI with SN12C renal, with MALME-3M melanoma, in the test with SF-539 CNS, with LOX IMVI melanoma, in the test on TK-10 renal and in the test on HL-60(TB) leukemia was greater than 100 µM throughout. Moreover, the TGI in the test with HCT-116 colon, in the test with SK-MEL-5 melanoma, in the test on SNB-19 CNS and in the test on SK-OV-3 ovarian was greater than 100 µM each time. Besides, the results for the GI50 with MALME-3M melanoma, with SF-539 CNS and in the test on SK-OV-3 ovarian were greater than 100000 nM, 67.4 µM and greater than 100 µM, respectively.
In the case of `Cn1c(=O)c(Oc2ccccc2)cc2cnc(NC3CCOCC3)nc21`, the GI50 was greater than 25000 nM in the test with SN12C renal; greater than 25000 nM in the test on MALME-3M melanoma; greater than 25 µM in the test on SF-539 CNS; greater than 25000 nM in the test with LOX IMVI melanoma; greater than 25000 nM in the test with TK-10 renal; greater than 25000 nM in the test with HL-60(TB) leukemia. The GI50 with HCT-116 colon is greater than 25000 nM; in the test on SK-MEL-5 melanoma it was greater than 25000 nM; in the test with SNB-19 CNS, greater than 25000 nM; in the test on SK-OV-3 ovarian, greater than 25 µM. Further, the TGI in the test with SN12C renal, in the test on MALME-3M melanoma, in the test on SF-539 CNS, in the test with LOX IMVI melanoma, with TK-10 renal and in the test with HL-60(TB) leukemia was greater than 25 µM throughout. In addition, the TGI with HCT-116 colon, in the test with SK-MEL-5 melanoma, with SNB-19 CNS and in the test with SK-OV-3 ovarian was greater than 25 µM throughout.
With `Nc1nc(-c2cccc([N+](=O)[O-])c2)cc(-c2cc(-c3cccc([N+](=O)[O-])c3)nc(N)n2)n1`, the TGI in the test with SN12C renal, with MALME-3M melanoma, with SF-539 CNS, in the test with LOX IMVI melanoma, in the test on TK-10 renal and with HL-60(TB) leukemia was greater than 100 µM each time. For the same compound, the TGI with HCT-116 colon, in the test with SK-MEL-5 melanoma, with SNB-19 CNS and in the test on SK-OV-3 ovarian was greater than 100 µM in each case.
`NNC(=O)/C(NC(=O)c1ccccc1)=C(\N)c1ccc(Cl)cc1`: the TGI in the test on SN12C renal, in the test on MALME-3M melanoma, in the test with SF-539 CNS, with LOX IMVI melanoma, with TK-10 renal and with HL-60(TB) leukemia was greater than 100 µM each time. Also, the TGI in the test on HCT-116 colon, in the test on SK-MEL-5 melanoma, in the test with SNB-19 CNS and with SK-OV-3 ovarian was greater than 100 µM in each case.
Turning to `CCC(C)C1NC(=O)C(CC(C)C)NC(=O)C(C)NC(=O)C(C(C)C)NC(=O)C(CCCCN)NC(=O)C(CC(C)C)NC(=O)C(C(C)C)NC(=O)[C@H](C)NC(=O)C(C(C)CC)NC(=O)C(CCCN=C(N)N)NC(=O)C(CCCCN)NC(=O)C(CCCN=C(N)N)NC(=O)C(CCCCN)NC(=O)C([C@H](C)CC)NC(=O)C(CCCCN)NC1=O` (stereo partly drawn) (cyclo(A[ξV][ξL][ξK][ξV][ξA][ξL][ξI][ξK][X21][ξK][ξR][ξK][ξR][ξI])), the GI50 in the test on SN12C renal is 1370 nM; in the test with MALME-3M melanoma, 1120 nM; in the test on SF-539 CNS it was 1.84 µM; in the test on LOX IMVI melanoma, 1620 nM; in the test on TK-10 renal it was 1620 nM; with HL-60(TB) leukemia, 1770 nM. Also, the GI50 in the test on HCT-116 colon is 1350 nM; in the test on SK-MEL-5 melanoma, 600 nM; with SNB-19 CNS, 2070 nM; in the test with SK-OV-3 ovarian it was 1.99 µM. Also, the TGI is 3.32 µM in the test with SN12C renal; 2.58 µM in the test on MALME-3M melanoma; 3.61 µM in the test on SF-539 CNS; 3.03 µM in the test with LOX IMVI melanoma; 3.82 µM in the test on TK-10 renal; 4.44 µM in the test with HL-60(TB) leukemia. The TGI with HCT-116 colon is 2.84 µM; in the test with SK-MEL-5 melanoma, 1.87 µM; with SNB-19 CNS, 10.1 µM; in the test on SK-OV-3 ovarian, 5.94 µM.
